According to patent US7553824B2, “Kit for determining polysaccharide-binding activity of mononuclear cells present in peripheral blood” (Ajinomoto Co., Inc., priority 2004, dated 2009):
Read-outs that look alike come from different tables or passages of the source.

Experiments:
[1] = system: blood cells (monocytes, granulocytes, lymphocytes); experiment: Test on binding-inhibitory effect of lentinan, mouse whole blood; set-up: species or system ICR mice; conditions: 50 μg/mL un-labeled lentinan added before 5-40 μg/mL fluorescein-labeled lentinan, one hour
Protocol: Upon the determination of the binding ability and prior to the dispensation of the whole blood into tubes, a 2 mg/mL lentinan solution diluted 10 times with PBS(−) was introduced into each tube in an amount of 25 μL/tube while ice-cooling the tubes, then the whole blood was dispensed into the tubes in an amount of 65 μL/tube and thereafter, a solution of fluorescein-labeled lentinan was added to each tube in an amount of 10 μL/tube (the final concentration of the lentinan solution for inhibition was set at 50 μg/mL). Then the subsequent operations were carried out according to the same procedures used above in the method for determining the binding ability (the previous section). (The results thus obtained are shown in FIG. 1 (indicated by FL+L50)).

[2] = system: monocytes; experiment: Test on binding-inhibitory effect of lentinan, human blood; conditions: 100 μg/mL lentinan added before 10 μg/mL fluorescein-labeled lentinan, Cases 3 and 4
Protocol: To the human blood sample, there was added the solution of lentinan (reference reagent 2) in a concentration of […], the resulting mixture was cultured at 37° C. for 15 minutes, fluorescein-labeled lentinan was then added thereto in a concentration of 10 μg/mL and the resulting mixture was further cultivated at 37° C. for additional 30 minutes. Thereafter, a PE-labeled antibody (available from Caltag Company) against human CD14 was added thereto, the resulting mixture was cultured at 37° C. for 30 minutes, 2 mL/tube of FACS Lysing Solution (a hemolysis/fixation liquid available from BD Company; diluted 10 times with distilled water) and then the resulting mixture was allowed to stand at room temperature for 10 minutes for the hemolysis of the blood sample. The subsequent operations and analysis were carried out by repeating the same procedures used above in the binding ability-determining method (in the foregoing paragraph) (the results thus obtained are shown in FIG. 7 (indicated by LNT+FL)). The similar analysis was carried out using fluorescein-labeled dextran as a control (reference reagent 1) for the fluorescein-labeled lentinan.

[3] = system: S180 mouse sarcoma cells; conditions: S180 subcutaneously transplanted, cited from earlier work

lentinan
effect on the binding ability of cells to fluorescein-labeled lentinan [1]: inhibited
effect on binding of fluorescein-labeled lentinan with cells [2]: inhibited
anti-tumor effect ([3]; C3H mice): weak anti-tumor effects
anti-tumor effect ([3]; C57BL/6 mice): medium anti-tumor effects
anti-tumor effect ([3]; ICR and BALB/c mice): higher anti-tumor effects
